Measurements as given in patent publication US20250161478A1, “LINKER PAYLOADS AND CONJUGATES THEREOF” (priority 2021, published 2025).
Read-outs that look alike come from different tables or passages of the source.

Columns and labels:
[1] = test system: HL-60 acute myeloid leukemia (AML) cell xenograft tumors; test: In vivo efficacy of anti-CD33 ADCs in HL-60 leukemia xenograft; conditions: single i.v. 10 mg/kg
Description: In vivo anti-leukemia xenograft efficacy was evaluated for anti-CD33 ADCs LNAuM (DAR=8.0) and GMAuM (DAR=8.0), as well as anti-CD33 antibodies LN and GM. HL-60 acute myeloid leukemia (AML) cells were obtained from the ATCC and cultured according to the manufacturer's instructions. The study was performed at the TCDM/Central Animal Laboratory, University of Turku, Finland, according to the appropriate ethical committee approval. Cells for inoculation to mice were prepared in vigorous exponential growth phase. 2 million cells in 50% Matrigel were inoculated s.c. to the flank of each mouse (female athymic nude mice between 8-10 weeks of age). Clinical signs and general behavior of the animals was observed regularly. […] Tumor growth was followed by palpation. After caliper measurement, tumor volume was calculated according to 0.5×length×width^2. The first dosings were administered when average tumor volume reached 100 mm^3. […] Intravenous (i.v.) treatment of 10 mg/kg either antibody or ADC in PBS was given once (single dose regimen), while the control group received no treatment.

[2] = test system: KG-1 cells; test: Cytotoxicity of anti-CD33 ADCs in KG-1 cells; type: cell-based; conditions: for IC50: KG-1 cells treated for 3 or 4 days, n = 3
Text: (§1) The AVG % values and standard deviations were transferred to GraphPad Prism 9.1.2.

[3] = test system: Ramos.2G6.4C10 (no CD33 expression) cells; test: Cytotoxicity of anti-CD33 ADCs in Ramos cells; type: cell-based
Text: as §1

[4] = test system: Daudi (no CD33 expression) cells; test: Cytotoxicity of anti-CD33 ADCs in Daudi cells; type: cell-based
Text: as §1

[5] = test system: B16-F10 mouse melanoma tumors; test: In vivo efficacy of PNU-ADCs in B16-F10 mouse melanoma model (Example 31); set-up: species or system mice
Description: In vivo anti-tumor efficacy of anti-TYRP1 ADCs (TAPeD, FLPeD, CHPeD and FLCPeMg) was evaluated in the B16-F10 mouse melanoma model as described above. […] Tumor growth was followed by palpation, and ADC dosings were administered when tumor sizes reached 60-110 mm^3, between 2-7 days after the inoculation. […] A single i.v. injection of 5 mg/kg ADC in PBS was given on the injection day and the tumor sizes were followed for at least 28 days. […] Another xenograft experiment was performed similarly as above. In this experiment, 10 xenografted mice received no treatment, while 10 xenografted mice were given three i.v. doses of 10 mg/kg TA99 antibody on days 2, 7 and 12 after the inoculation (3×10 mg/kg at 5 day intervals). In every one of these 20 mice the tumors grew to >200 mm^3 during 28 days' follow-up period.

[6] = In vivo tolerability of PNU-ADCs in normal mice; set-up: species or system C57BL/6J mice; conditions: for Dose-limiting toxicity dose level / MTD (maximum tolerated dose): single i.v. dose; for Dose-limiting toxicity dose level: n=3, followed up to 30 days; for MTD (maximum tolerated dose): n=3, next lower dose below the dose-limiting toxicity dose level
Description: Tolerability and safety of ADCs conjugated with PNU-EDA linker-payloads were tested in normal C57BL/6J mice. Female young adult mice at the age of 8-10 weeks were used, 3 mice/group (n=3). […] Clinical signs, body weight and general behavior of the animals were observed regularly. Dose-limiting toxicity was observed as either over 10% reduction of average body weight in the group or acute toxicity in any animal in the group. Maximum tolerated dose (MTD) was determined as the next lower dose below the dose-limiting toxicity dose level. ADCs were prepared as described above and a single i.v. dose of the ADC was given on the first day of the study. The mice were followed for up to 30 days if no dose-limiting toxicity was observed.

[7] = test system: B16-F10 mouse melanoma tumors; test: In vivo efficacy in B16-F10 syngeneic tumor mice (Example 9); set-up: species or system C57BL/6J mice; conditions: single i.v. 5 mg/kg two days after inoculation, six mice/group
Text: In vivo anti-tumor efficacy of ADC of monoclonal TA99 IgG2a antibody, glycoconjugated TA99 ADC with DBCO-Val-Ser(GlcA)-EDA-PNU payloads (TA99-PNU ADC, DAR=2) and TA99 ADC with maleimidoacetyl-EDA-PNU payloads (TA99-M-PNU ADC, DAR=4), prepared and maleimide-stabilized as described above, was compared to non-treated mice. B16-F10 mouse melanoma cells were obtained from the ATCC (USA) and cultured according to the manufacturer's instructions to study efficacy of antibody-drug conjugates in highly treatment-resistant syngeneic tumors in female adult C57BL/6J mice at the age of about 8-weeks. […] Tumor growth was followed by palpation. […] The first dosings were administered two days after the inoculation due to the high take rate and very rapid growth of the tumors. Mice were randomly divided into study groups. […] Unconjugated antibody (TA99/anti-gp75, Invivogen) was used in this study as the control treatment.

[8] = ADC concentration in serum by ELISA (systemic exposure); type: in vivo, mice; conditions: trapezoidal method, 10 mg/kg i.v.
Description: Serum samples (from 40 μl blood) were taken from each mouse in the treatment groups as well as two mice in the control group to follow systemic exposure of the compounds on day 1, day 5 and day 9 after dosing. ADC concentrations in the serum samples were analyzed by ELISA using FastELISA Human immunoglobulin quantification kit (RD-Biotech) according to the manufacturer's instructions. Between 1 d-9 d, LNAuM had better systemic exposure than GMAuM and GMAuM was eliminated faster from circulation by Day 9 than LNAuM.

[9] = test system: IGR-1 human melanoma cells; test: Cytotoxicity of ADCs, PrestoBlue cell viability, IGR-1 cells; type: cell-based
Description: (§2) Toxicity of anti-TYRP ADCs was tested with SK-MEL-28 (ATCC: HTB®-72™) SK-MEL-30 (DSMZ: ACC 151) and/or IGR-1 (DSMZ: ACC 236) human melanoma cells.
IGR-1 cells were seeded in 96-well plate, 2000 cells/well, and cultivated in 10% FBS/DMEM-medium under standard cell culture conditions. After overnight culture, the diluted ADCs or unconjugated antibodies (concentration range 0.1 nM-300 nM) were added to cells, and incubated for 3-5 days. The viability of the cells was evaluated with PrestoBlue cell viability reagent.
as §1

[10] = test system: CD33- cell lines Ramos and Daudi versus CD33+ cells; test: In vitro therapeutic window, CD33- versus CD33+ cell lines; type: cell-based; conditions: IC50 not reached at 300 nM in Ramos and Daudi versus CD33+ cells
[11] = test system: K-562 (low CD33) cells; test: Cytotoxicity of anti-CD33 ADCs in K-562 cells; type: cell-based; conditions: K-562 (low CD33) cells treated for 3 days
Text: as §1

[12] = test system: MOLM-13 cells; test: Cytotoxicity of anti-CD33 ADCs in MOLM-13 cells; type: cell-based; conditions: MOLM-13 cells treated for 3 days
Text: as §1

[13] = test system: HL-60 cells; test: Cytotoxicity of anti-CD33 ADCs in HL-60 cells; type: cell-based; conditions: HL-60 cells treated for 5 days
Text: as §1

[14] = test system: SK-MEL-30 human melanoma cells; test: Cytotoxicity of ADCs, PrestoBlue cell viability, SK-MEL-30 cells; type: cell-based; conditions: incubated 3-5 days, ranges are over n experiments
Description: as §2
SK-MEL-30 were seeded in 96-well plate, 2000 cells/well or 3000 cells/well and cultivated in 10% FBS/RPMI 1640-medium under standard cell culture conditions. After overnight culture, diluted ADCs or antibodies were added to the cells, and incubated for 3-5 days. For cell control, the cells were treated with medium without ADC. The viability of the cells was evaluated with PrestoBlue cell viability reagent.
as §1

[15] = single 5 mg/kg i.v. dose on days 2-7 when tumors reach 60-110 mm^3, 6 mice/group, at least 28 days
[16] = 5 mice/group, 30 days follow-up

Question: For lintuzumab, which “duration of tumor growth inhibition” value ([1]; 5 mice/group) is on record?
Answer: The value was “about 20 days”.

Question: And the “Unconjugated antibody: no effect up to (highest concentration tested)” value (from here on “Unconjugated antibody: no effect up”) ([2]; KG-1 cells)?
Answer: Its value is > 300 nM.

Question: What about the “Unconjugated antibody: no effect up” value ([3]; Ramos cells) of the same substance?
Answer: Its value is > 300 nM.

Question: What about the “Unconjugated antibody: no effect up” value [4] of the same substance?
Answer: Its value is > 300 nM.

Question: With “Chimeric TA99-DBCO-Val-Ser(G1cA)-EDA-PNU [CHPeD]” as the substance, how does the “Number of mice with <200 mm^3 tumor at end of study” value (“Number of mice with <200 mm^3 tumor” below) [5, 15] read?
Answer: The value was 2.

Question: Which “Number of mice with <200 mm^3 tumor” value ([5]; 3 × 10 mg/kg i.v. on days 2, 7 and 12 after inoculation, 10 mice/group, 28 days) does the source give for TA99 here?
Answer: Its value is 0.

Question: And the “toxicity (in words)” value ([6]; 20 mg/kg or 30 mg/kg)?
Answer: Its value is “No toxicity was observed”.

Question: What about the “tumor growth (in words)” value [7] of the same substance?
Answer: The value was “tumors grew rapidly”.

Question: Which “tumor growth (in words)” value [1, 16] does the source give for gemtuzumab here?
Answer: Its value is “tumors grew fast”.

Question: With “gemtuzumab-maleimidoacetyl-β-Ala-Val-Ser(Glc)-PAB-MMAU [GMAuM]” as the substance, how does the “toxicity (in words)” value [1] read?
Answer: The value was “no toxicity was detected”.

Question: What about the “mice in which tumors disappeared without regrowth” value [1, 16] of the same substance?
Answer: The value was 5/5.

Question: What about the “AUC(1-9 d), partial area under curve between 1 d-9 d” value [8] of the same substance?
Answer: The value was 160 mg·days/L.

Question: For “FLCPeMg: cysteine engineered flanvotumab HC N299C conjugated with PeMg (MA-Ac-β-Ala-VS(GlcA)-EDA-PNU), DAR 2.2”, which “Number of mice with <200 mm^3 tumor” value [5, 15] is on record?
Answer: Its value is 2.

Question: And the “IC50 values against IGR-1 cells (in words)” value [9]?
Answer: The value was “picomolar”.

Question: And the “Dose-limiting toxicity dose level” value [6]?
Answer: Its value is 12.5 mg/kg.

Question: With “lintuzumab-maleimidoacetyl-β-Ala-Val-Ser(Glc)-PAB-MMAU [LNAuM]” as the substance, how does the “toxicity (in words)” value [1] read?
Answer: The value was “no toxicity was detected”.

Question: And the “mice in which tumors disappeared without regrowth” value [1, 16]?
Answer: The value was 5/5.

Question: What about the “in vitro therapeutic window” value [10] of the same substance?
Answer: Its value is “greater than 10000”.

Question: What about the IC50 ([2]; read-out: IC50) of the same substance?
Answer: The IC50 was 0.144 to 0.313 nM.

Question: And the IC50 ([2]; read-out: IC50 (AVG ± standard deviation))?
Answer: Its IC50 is 0.242 ± 0.088 nM.

Question: And the IC50 [11]?
Answer: The IC50 was 24 to 66 nM.

Question: And the IC50 ([3]; Ramos.2G6.4C10 cells, no CD33 expression)?
Answer: Its IC50 is > 300 nM.

Question: What about the “AUC(1-9 d), partial area under curve between 1 d-9 d” value [8] of the same substance?
Answer: Its value is 200 mg·days/L.

Question: What about the IC50 ([12]; n = 3, read-out: IC50 (AVG ± standard deviation)) of the same substance?
Answer: The IC50 was 0.039 ± 0.016 nM.

Question: What about the IC50 ([12]; read-out: IC50) of the same substance?
Answer: The IC50 was 0.023 to 0.055 nM.

Question: What about the IC50 ([4]; no CD33 expression, treated for 3 days) of the same substance?
Answer: Its IC50 is > 300 nM.

Question: And the IC50 ([13]; n = 4, read-out: IC50 (AVG ± standard deviation))?
Answer: Its IC50 is 0.272 ± 0.181 nM.

Question: What about the IC50 ([13]; range over n experiments, read-out: IC50) of the same substance?
Answer: The IC50 was 0.024 to 0.459 nM.

Question: Which results are given for “FLCPeMa: cysteine engineered flanvotumab HC N299C conjugated with PeMa (MA-Ac-EDA-PNU), DAR 1.7”?
Answer: Dose-limiting toxicity dose level [6]: 20 mg/kg; MTD (maximum tolerated dose) [6]: 15 mg/kg

Question: Which results are given for “Flanvotumab-DBCO-Val-Ser(GlcA)-EDA-PNU [FLPeD]”?
Answer: Number of mice with <200 mm^3 tumor at end of study [5, 15]: 2; IC50 [14]: 1.3 to 8.2 nM; IC50 values against IGR-1 cells (in words) [9]: picomolar; Dose-limiting toxicity dose level [6]: 15 mg/kg; MTD (maximum tolerated dose) [6]: 10 mg/kg

Question: Which “IC50 values against IGR-1 cells (in words)” value [9] does the source give for “FLCPeMala: cysteine engineered flanvotumab HC N299C conjugated with PeMala (MA-Ac-β-Ala-EDA-PNU), DAR 2.0” here?
Answer: Its value is “picomolar”.

Question: And the “MTD (maximum tolerated dose)” value [6]?
Answer: The value was 5 mg/kg.
